What was measured:
Type in all cases: in vivo
Lambsquarters [1] = test: Greenhouse pot test, pre-emergence soil treatment, visual control effect 30 days after treatment, Gowing method
Bristlegrass [2] = test: as above
Method: (§1) In the present application, indoor combined action of the compound of herbicide active component A and B on weeds was measured to determine the combined effect of the composition on weeds, wherein the structure of the active component A was as follows:
(§2) The weed cultivation method was as follows: quantitative weed seeds abutilon and bristlegrass were respectively sown in a paper cup filled with nutrient soil with a diameter of 7 cm, and then cultivated in the greenhouse after covering the soil, suppressing and watering. The post-emergence stem and leaf treatment was performed when the grass weeds grew to 5-7 leaf stage, broad-leaved weeds grew to 6-8 leaf stage; the pre-emergence soil treatment was performed the second day after sowing, and the early post-emergence treatment was performed after sowing and before emergence; the experiment was repeated 3 times. After the treatment and drug solution naturally dried, the weeds were placed in the greenhouse to be managed according to conventional methods. According to the suppression or death of the weeds, a visual control effect investigation was conducted 30 days after the treatment. The application adopted the Gowing method to evaluate the combined effect of the proposed composition.
(§3) X—Weed control effect when the amount of herbicide component A is P;
(§4) Y—Weed control effect when the amount of herbicide component B is Q;
(§5) E0—Theoretical control effect when the amount of herbicide component A is […];
(§6) E—The measured control effect after the herbicide component A and the herbicide component B are mixed according to the above ratio.
(§7) When E−E0>10%, it is synergism; when E−E0<−10%, it is antagonism; when E−E0 value is between ±10%, it is addition.

Amaranthusretroflexus [3] = test: Field plot test, non-cultivated weeds, pre-emergence soil treatment; settings: Table 8, dose 600 ga.i./hm^2
Method: (§8) The present application also conducted a medicinal efficacy test on weeds on the formulation examples containing herbicide active component A and active component B by the field plot test method, and clarified the control effect of the composition on non-cultivated weeds.
(§9) According to the different components of different formulation examples, pre-emergence soil treatment, early post-emergence and post-emergence stem and leaf spray treatment were carried out respectively. The spraying device was Singapore Linong HD400 hand-operating knapsack sprayer (No. H17001), working pressure: […], spray rate: 640 mL/min, adjustable cone spraying nozzle (325787), spraying nozzle height: 0.5 m, spray width: 0.85 m, walking speed: about 16.7 m/min, and spray volume: […];

Lambsquarters [4] = test: as above; settings: Table 8, dose 600 ga.i./hm^2
Method: as §8, §9

Bristlegrass [5] = test: as above; settings: Table 8, dose 600 ga.i./hm^2
Method: as §8, §9

Crabgrass = test: as above; settings: Table 8, dose 600 ga.i./hm^2
Method: as §8, §9

Abutilon [6] = test: Greenhouse pot test (treatment timing not given, Table 6), visual control effect, Gowing method
Method: as §1, §2, §3, §4, §5, §6, §7

Abutilon [7] = test: Field plot test, non-cultivated weeds, post-emergence stem and leaf spray; settings: Table 10, dose 100 ga.i./hm^2
Method: as §8, §9

Echinochloacrusgalli = test: as above; settings: Table 10, dose 100 ga.i./hm^2
Method: as §8, §9

Amaranthusretroflexus [8] = test: as above; settings: Table 10, dose 100 ga.i./hm^2
Method: as §8, §9

Bristlegrass [9] = test: as above; settings: Table 10, dose 100 ga.i./hm^2
Method: as §8, §9

Bristlegrass [10] = test: Greenhouse pot test (treatment timing not given, Tables 6 and 7), visual control effect, Gowing method
Method: as §1, §2, §3, §4, §5, §6, §7

Compound | Measured value E (Lambsquarters [1]; Table 1, dose 75 ga.i./hm^2) [%] | Measured value E (Lambsquarters [1]; Table 1, dose 150 ga.i./hm^2) [%] | Measured value E (Bristlegrass [2]; Table 1, dose 75 ga.i./hm^2) [%] | Measured value E (Bristlegrass [2]; Table 1, dose 150 ga.i./hm^2) [%] | Control effect, Amaranthusretroflexus (Amaranthusretroflexus [3]) | Control effect, Lambsquarters (Lambsquarters [4]) | Control effect, Bristlegrass (Bristlegrass [5]) | Control effect, Crabgrass (Crabgrass) | Measured value E (Abutilon [6]; dose 30 ga.i./hm^2) [%] | Measured value E (Abutilon [6]; dose 120 ga.i./hm^2) [%] | Control effect, Abutilon (Abutilon [7]) | Control effect, Echinochloacrusgalli (Echinochloacrusgalli) | Control effect, Amaranthusretroflexus (Amaranthusretroflexus [8]) | Control effect, Bristlegrass (Bristlegrass [9]) | Measured value E (Bristlegrass [10]; Table 6, dose 30 ga.i./hm^2) [%] | Measured value E (Bristlegrass [10]; Table 6, dose 120 ga.i./hm^2) [%]
COC[C@H](C)N(C(=O)CCl)c1c(C)csc1C [Dimethoxamid-P] | 35 | 50 | 30 | 55 | 80 | 75 | 55 | 70 |  |  |  |  |  |  |  | 
COCC(C)N(C(=O)CCl)c1c(C)csc1C (stereo not drawn) [Dimethoxamide] | 20 | 35 | 25 | 40 | 55 | 70 | 50 | 70 |  |  |  |  |  |  |  | 
CP(=O)(O)CC[C@H](N)C(=O)O.N [Glufosinate-P-ammonium] |  |  |  |  |  |  |  |  | 45 | 65 | 70 | 60 | 80 | 45 | 40 | 65

Reference: patent publication US20210112813A1, “HERBICIDAL COMPOSITION AND USE THEREOF” (NANTONG JIANGSHAN AGROCHEMICAL & CHEMICALS CO., LTD., priority 2019, published 2021)
